Source: patent US8629168B2, “Benzoxazoles and oxazolopyridines being useful as janus kinases inhibitors” (priority 2006, dated 2014)

Each compound was assayed against T1, GST-JAK2(808-1132) (Homo sapiens, UniProt O60674) (assay: EPK JAK/TYK-kinase family profiling assay (Caliper mobility shift), JAK2). Settings: Caliper mobility shift assay of Example 187, 20 μM ATP, read-out: IC50 with Test in present Example.
T1 construct: GST-JAK2(808-1132) is purchased from Invitrogen; purchased Invitrogen (Carlsbad, USA) #4288
T1 sequence (O60674 808-1132): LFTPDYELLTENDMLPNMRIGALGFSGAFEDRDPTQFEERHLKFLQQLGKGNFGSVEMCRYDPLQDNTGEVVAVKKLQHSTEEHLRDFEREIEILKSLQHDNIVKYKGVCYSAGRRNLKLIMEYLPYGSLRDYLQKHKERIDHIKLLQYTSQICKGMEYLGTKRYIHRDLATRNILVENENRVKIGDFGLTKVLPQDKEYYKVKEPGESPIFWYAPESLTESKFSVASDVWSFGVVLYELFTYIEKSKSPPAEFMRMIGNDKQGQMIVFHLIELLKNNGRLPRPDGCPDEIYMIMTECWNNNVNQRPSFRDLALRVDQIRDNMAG
Type: biochemical
Text: All four kinases of the JAK/TYK-kinase family are used as purified recombinant GST-fusion proteins, containing the active kinase domains. GST-JAK1(866-1154), GST-JAK3(811-1124), and GST-TYK2(888-1187) are expressed and purified by affinity chromatography. GST-JAK2(808-1132) is purchased from Invitrogen (Carlsbad, USA, #4288).
The kinase assays are based on the Caliper mobility shift assay using the LabChip 3000 systems. This technology is similar to capillary electrophoresis and uses charge driven separation of substrate and product in a microfluidic chip.
All kinase reactions are performed in 384 well microtiter plates in a total reaction volume of 18 μl. The assay plates are prepared with 0.1 μl per well of test compound in the appropriate test concentration, as described under the section “preparation of compound dilutions”. The reactions are started by combining 9 μl of substrate mix (consisting of peptide and ATP) with 9 μl of kinase dilution. The reactions are incubated for 60 minutes at 30° C. and stopped by adding 70 μl of stop buffer (100 mM Hepes, 5% DMSO, 0.1% Coating reagent, 10 mM EDTA, 0.015% Brij 35).
Fluorescently labeled synthetic peptides are used as substrates in all reactions. […] Specific assay conditions are described in Table 1:
The terminated reactions are transferred to a Caliper LabChip 3000 reader (Caliper Life Sciences, Mountain View, Calif., USA) and the turnover of each reaction is measured by determining the substrate/product ratio.
Test compounds are dissolved in DMSO (10 mM) and transferred into 1.4 mL flat bottom or V-shaped Matrix tubes carrying a unique 2D matrix chip by individual compound hubs. The numbers of these chips are distinctively linked to the individual compound identification numbers. The stock solutions are stored at −20° C. if not used immediately. For the test procedure the vials are defrosted and identified by a scanner whereby a working sheet is generated that guides the subsequent working steps.
Compound dilutions are made in 96 well plates. This format enabled the assay of maximally 40 individual test compounds at 8 concentrations (single points) including 4 reference compounds. The dilution protocol includes the production of pre-dilution plates, master plates and assay plates:
Pre-dilution plates: 96 polypropylene well plates are used as pre-dilution plates. A total of 4 pre-dilution plates are prepared including 10 test compounds each on the plate positions A1-A10, one standard compound at A11 and one DMSO control at A12. All dilution steps are done on a Hamilton STAR robot (Hamilton, Co., Reno, Nev., USA).
Master plates: 100 μL of individual compound dilutions including standard compound and controls of the 4 “pre-dilution plates” are transferred into a 384 “master plate” including the following concentrations 1,820, […], 182, 54.6, 18.2, 5.46, 1.82 and 0.546 μM, respectively in 90% of DMSO.
Assay plates: Identical assay plates are then prepared by pipetting 100 nL each of compound dilutions of the master plates into 384-well “assay plates”. In the following the compounds are mixed with 9 μL of assays components plus 9 μL enzyme corresponding to a 1:181 dilution steps enabling the final concentration of 10, 3.0, 1.0, 0.3, 0.1, 0.03, 0.01 and 0.003 μM, respectively. The preparation of the master plates are handled by the Matrix PlateMate Plus robot (Thermo Fisher Scientific, Handforth, Cheshire, United Kingdom) and replication of assay plates by the HummingBird robot (Genomic Solutions, Inc., Ann Arbor, Mich., USA).
Work on CCN1CCN(c2ccc(Nc3nc4cccc(-c5cc(F)c(C(=O)N6CCOCC6)c(F)c5)c4o3)cc2C)CC1 [Example 109, (4-{2-[4-(4-Ethyl-piperazin-1-yl)-3-methyl-phenylamino]-benzooxazol-7-yl}-2,6-difluoro-phenyl)-morpholin-4-yl-methanone] yielded an IC50 of 11 nM. With CN(C)C(=O)c1ccc(Nc2nc3cccc(-c4ccc(CS(C)(=O)=O)cc4)c3o2)cc1 [Example 71, 4-[7-(4-Methanesulfonylmethyl-phenyl)-benzooxazol-2-ylamino]-N,N-dimethyl-benzamide] the IC50 was 15 nM. CCN1CCN(c2ccc(Nc3nc4ccnc(-c5cc(F)c(CN6CCOCC6)c(F)c5)c4o3)cc2C)CC1 [Example 152, [4-(3,5-Difluoro-4-morpholin-4-ylmethyl-phenyl)-oxazolo[5,4-c]pyridin-2-yl]-[4-(4-ethyl-piperazin-1-yl)-3-methyl-phenyl]-amine] gave an IC50 of 180 nM. CS(=O)(=O)c1ccc(-c2cccc3nc(Nc4ccc(N5CCN(C6CC6)CC5)cc4)oc23)cc1 [Example 113, [4-(4-Cyclopropyl-piperazin-1-yl)-phenyl]-[7-(4-methanesulfonyl-phenyl)-benzooxazol-2-yl]-amine] gave an IC50 of 270 nM. Work on CC(=O)NC1Cc2ccc(Nc3nc4cccc(-c5ccc(CN6CCS(=O)(=O)CC6)cc5)c4o3)cc2C1 (stereo not drawn) [Example 133, N-(5-{7-[4-(1,1-Dioxo-1lambda*6*-thiomorpholin-4-ylmethyl)-phenyl]-benzooxazol-2-ylamino}-indan-2-yl)-acetamide] yielded an IC50 of 14 nM. Cc1cc(Nc2nc3cccc(-c4cc(F)c(CN5CCS(=O)(=O)CC5)c(F)c4)c3o2)ccc1N1CCN(CCN(C)C)CC1 [Example 107, {4-[4-(2-Dimethylamino-ethyl)-piperazin-1-yl]-3-methyl-phenyl}-{7-[4-(1,1-dioxo-1lambda*6*-thiomorpholin-4-ylmethyl)-3,5-difluoro-phenyl]-benzooxazol-2-yl}-amine] was tested, and the IC50 was 4.3 nM. In the case of CN1CCN(c2ccc(Nc3nc4cccc(-c5cc(F)c(CN6CCS(=O)(=O)CC6)c(F)c5)c4o3)cc2)CC1 [Example 95, {7-[4-(1,1-Dioxo-1lambda*6*-thiomorpholin-4-ylmethyl)-3,5-difluoro-phenyl]-benzooxazol-2-yl}-[4-(4-methyl-piperazin-1-yl)-phenyl]-amine], the IC50 is reported as 6.85 nM. Cc1cc(-c2cccc3nc(Nc4ccc(N5CCN(C6CC6)CC5)c(C)c4)oc23)ccc1C(=O)N1CCS(=O)(=O)CC1 [Example 162, (4-{2-[4-(4-Cyclopropyl-piperazin-1-yl)-3-methyl-phenylamino]-benzooxazol-7-yl}-2-methyl-phenyl)-(1,1-dioxo-1lambda*6*-thiomorpholin-4-yl)-methanone] was tested, and the IC50 was 8.9 nM. For Cc1cc(Nc2nc3cccc(-c4ccc(C(C)(C)C(=O)N5CCOCC5)cc4)c3o2)ccc1N1CCN(C2CC2)CC1 [Example 157, 2-(4-{2-[4-(4-Cyclopropyl-piperazin-1-yl)-3-methyl-phenylamino]-benzooxazol-7-yl}-phenyl)-2-methyl-1-morpholin-4-yl-propan-1-one], the IC50 was 11.7 nM. Work on CNS(=O)(=O)c1ccc(-c2cccc3nc(Nc4ccc(C)c(OC)c4)oc23)cc1 [Example 144, 4-[2-(3-Methoxy-4-methyl-phenylamino)-benzooxazol-7-yl]-methyl-benzenesulfonamide] yielded an IC50 of 725 nM. Cc1cc(Nc2nc3cccc(-c4ccc(CN5CCOCC5)c(F)c4)c3o2)ccc1C(=O)N(C)C [Example 64, 4-[7-(3-Fluoro-4-morpholin-4-ylmethyl-phenyl)-benzooxazol-2-ylamino]-2,N,N-trimethyl-benzamide] gave an IC50 of 4.2 nM. Compound Cc1cc(Nc2nc3cccc(-c4ccc(CC(=O)N5CCS(=O)(=O)CC5)cc4)c3o2)ccc1C(=O)N(C)C [Example 77, 4-(7-{4-[2-(1,1-Dioxo-1lambda*6*-thiomorpholin-4-yl)-2-oxo-ethyl]-phenyl}-benzooxazol-2-ylamino)-2, N,N-trimethyl-benzamide] has an IC50 of 3.3 nM. Compound COCCN1CCN(c2ccc(Nc3nc4cccc(-c5ccc(S(C)(=O)=O)cc5)c4o3)cc2C)CC1 [Example 115, [7-(4-Methanesulfonyl-phenyl)-benzooxazol-2-yl]-{4-[4-(2-methoxy-ethyl)-piperazin-1-yl]-3-methyl-phenyl}-amine] has an IC50 of 39 nM. Compound CCN1CCN(c2ccc(Nc3nc4cccc(-c5ccc(C(=O)N6CCS(=O)(=O)CC6)cc5)c4o3)cc2C)CC1 [Example 116, (1,1-Dioxo-1lambda*6*-thiomorpholin-4-yl)-(4-{2-[4-(4-ethyl-piperazin-1-yl)-3-methyl-phenylamino]-benzooxazol-7-yl}-phenyl)-methanone] has an IC50 of 15 nM. For CN1CCN(c2ccc(Nc3nc4cccc(-c5ccc(C(=O)N6CCOCC6)c(F)c5)c4o3)cc2)CC1 [Example 75, (2-Fluoro-4-{2-[4-(4-methyl-piperazin-1-yl)-phenylamino]-benzooxazol-7-yl}-phenyl)-morpholin-4-yl-methanone], the IC50 was 6.5 nM. Compound CCN(CC)C(=O)c1ccc(Nc2nc3cccc(-c4cc(F)c(CN5CCOCC5)c(F)c4)c3o2)cc1C [Example 103, 4-[7-(3,5-Difluoro-4-morpholin-4-ylmethyl-phenyl)-benzooxazol-2-ylamino]-N,N-diethyl-2-methyl-benzamide] has an IC50 of 14 nM. For Cc1cc(-c2cccc3nc(Nc4ccc(N5CCN(C(C)C)CC5)c(C)c4)oc23)ccc1C(=O)N1CCOCC1 [Example 106, (4-{2-[4-(4-Isopropyl-piperazin-1-yl)-3-methyl-phenylamino]-benzooxazol-7-yl}-2-methyl-phenyl)-morpholin-4-yl-methanone], the IC50 was 6.15 nM. With COc1cc(Nc2nc3cccc(-c4ccc(C(=O)N5CCOCC5)cc4)c3o2)ccc1C(=O)N(C)C [Example 150, 2-Methoxy-N,N-dimethyl-4-{7-[4-(morpholine-4-carbonyl)-phenyl]-benzooxazol-2-ylamino}-benzamide] the IC50 was 25 nM. CCN1CCN(c2ccc(Nc3nc4cccc(-c5ccc(CN6CCS(=O)(=O)CC6)c(F)c5)c4o3)cc2C)CC1 [Example 88, {7-[4-(1,1-Dioxo-1lambda*6*-thiomorpholin-4-ylmethyl)-3-fluoro-phenyl]-benzooxazol-2-yl}-[4-(4-ethyl-piperazin-1-yl)-3-methyl-phenyl]-amine] gave an IC50 of less than 3 nM. CCN1CCN(c2ccc(Nc3nc4cccc(-c5ccc(S(C)(=O)=O)cc5)c4o3)cc2C)CC1 [Example 92, [4-(4-Ethyl-piperazin-1-yl)-3-methyl-phenyl]-[7-(4-methanesulfonyl-phenyl)-benzooxazol-2-yl]-amine] gave an IC50 of 10.1 nM. With COc1ccc(Nc2nc3cccc(-c4cc(F)c(CN5CCS(=O)(=O)CC5)c(F)c4)c3o2)cc1N1CCN(C)CC1 [Example 130, {7-[4-(1,1-Dioxo-1lambda*6*-thiomorpholin-4-ylmethyl)-3,5-difluoro-phenyl]-benzooxazol-2-yl}-[4-methoxy-3-(4-methyl-piperazin-1-yl)-phenyl]-amine] the IC50 was 6.55 nM. Cc1cc(Nc2nc3cccc(-c4ccc(S(C)(=O)=O)cc4)c3o2)ccc1N1CCN(CCN(C)C)CC1 [Example 100, {4-[4-(2-Dimethylamino-ethyl)-piperazin-1-yl]-3-methyl-phenyl}-[7-(4-methanesulfonyl-phenyl)-benzooxazol-2-yl]-amine] showed an IC50 of 16.5 nM. Work on Cc1cc(Nc2nc3cccc(-c4cc(F)c(CN5CCOCC5)c(F)c4)c3o2)ccc1C(=O)N(C)CCN(C)C [Example 158, 4-[7-(3,5-Difluoro-4-morpholin-4-ylmethyl-phenyl)-benzooxazol-2-ylamino]-N-(2-dimethylamino-ethyl)-2,N-dimethyl-benzamide] yielded an IC50 of 21 nM. Work on CN1CCN(c2ccc(Nc3nc4cccc(-c5ccc(S(N)(=O)=O)cc5)c4o3)cc2)CC1 [Example 93, 4-{2-[4-(4-Methyl-piperazin-1-yl)-phenylamino]-benzooxazol-7-yl}-benzenesulfonamide] yielded an IC50 of 52 nM.
